The target of test [1] is T1, wild-type LptB2FGC complexes (Escherichia coli, UniProt P0A9V1).
T1 construct: made in house; host or cells: right-side-out membrane vesicles from E. coli BL-21(λDE3) overexpressing the complex
As to the kind of experiment: LPS-release assay, right-side-out vesicles to LptA*. The test is classed as biochemical, E. coli. The following applies: overexpressed LptB2FGC vesicles, 30° C. for 1 hour (FIG. 9D, 9E). On the procedure: (§1) FIG. 9A is a schematic drawing showing the assay to monitor LPS release from right-side-out vesicles to LptA* (LptA(I36pBPA)). Vesicles containing overexpressed wild-type or mutant LptB2FGC complexes were incubated with LptA* and ATP at 30° C. to initiate LPS extraction and transport from the vesicles to LptA*. Samples were taken at different time points and UV-irradiated to crosslink LPS to LptA*, and accumulation of LPS-LptA* adducts was detected using LPS immunoblots.
FIG. 9D is a picture of an immunoblot showing that novobiocin and derivatives with impaired gyrase activities stimulate LPS transport in E. coli in vitro. […] Samples were UV irradiated at 365 nm for 5 minutes and then quenched with 2X SDS/5% β-mercaptoethanol. Samples were immunoblotted.
(§2) The assay detects via immunoblot LPS that becomes crosslinked to LptA* in the presence of UV light. […] By comparison, vesicles containing LptB2LptFG(ch)C complexes released less LPS over time (FIG. 9B, lanes 5-8). These experiments provide direct evidence that the amino acid changes in LptFG(ch), which were known to affect complex formation with LptB, impair LPS release. […] These compounds also increase LPS release from vesicles containing wild-type LptB2FGC complexes or LptB(R91 S)2FGC complexes (FIG. 17).
Samples were UV irradiated at 365 nm for 5 minutes and then quenched with 2X SDS/5% β-mercaptoethanol. Samples were immunoblotted.
The in vitro LPS-transport experiments in FIGS. 9B, 9C, and 17 were set-up as described in (Okuda et al. Science 2012, 338, 1214-1217) with some modifications. RSO-vesicles (50 μg total protein) were diluted into 100 μL reaction buffer (10% v/v glycerol, 20 mM Tris (pH 8.0), 150 mM NaCl, 5 mM sodium-ATP, 5 mM MgCl2), and incubated on ice with novobiocin, 1-adamantyl-novobiocin, or no compound for 15 minutes (50× compound stocks in water were used for each concentration). […]
(§3) Immunoblotting was used to assess LptA*-LPS levels in each sample. […] LptA levels were assessed similarly, using rabbit anti-LptA antiserum followed by donkey anti-rabbit horseradish peroxidase conjugate (GE Amersham). […]

For a further test, the system named is wild-type E. coli. As to the kind of experiment: Checkerboard microdilution assay between PMB and clorobiocin / novobiocin (FIG. 9F). The test is classed as cell-based. The following applies: 37° C. for 24 h. In general terms: Dilution methods test growth across graded concentrations, often in twofold steps.
In a further test the test system is wild type and IptB1. As to the kind of experiment: Plating assay (FIG. 14). The test is classed as cell-based, E. coli. The procedure: (§4) Efficiency of plating assays were performed on indicated media using the method described in Butler et al., J. Bacteriol. 2013, 195, 4639-4649.
For test [2], the target named is T2, LptB2LptFG(ch)C complexes (Escherichia coli, UniProt P0A9V1).
T2 construct: made in house; host or cells: right-side-out membrane vesicles from E. coli BL-21(λDE3) overexpressing the complex
As to the kind of experiment: LPS-release assay, right-side-out vesicles to LptA*. The following applies: 30° C. (FIG. 9C). The test is classed as biochemical, E. coli. On the procedure: as §1, §2
The in vitro LPS-transport experiments in FIGS. 9B, 9C, and 17 were set-up as described in (Okuda et al. Science 2012, 338, 1214-1217) with some modifications. […]
as §3

A further test has as its system IptFG(ch) mutant. As to the kind of experiment: Rescue of growth of coupling helix mutant (plating and disk assays). The test is classed as cell-based, E. coli. On the procedure: FIG. 8B is a series of pictures of bacterial overnight cultures grown in minimal medium. The cultures were serially diluted ten-fold and spotted onto LB agar plates with and without compounds.
FIG. 15 is a picture of bacterial lawns grown on plates in the presence of disks containing antibiotics. […] Strains were grown overnight in minimal media and then plated on LB plates. Each disk contained 5 μg compound.
The coupling helices in LptFG each contain a strictly-conserved glutamate, and changing both glutamates to alanine (IptFG(ch)) causes a lethal loss of function (FIG. 8B, LB panel). […] Because novobiocin also contacts R91 (FIG. 7C), we speculated that it might rescue growth of IptFG(ch) by masking the charge. […] We conclude that novobiocin suppresses Lpt defects in vivo by interacting with LptB at R91; therefore, novobiocin interacts with LptB in cells in a similar manner to that observed in the crystal structure.
Disk diffusion assays were performed as described in Sherman et al., Proc. Natl. Acad. Sci. USA 2014, 111, 4982-4987. Premade Sensi-Disc (BD-Beckton, Dickinson and Company) were used for bacitracin 10IU, erythromycin 15 μg, novobiocin 30 μg, and rifampin 5 μg.
as §4

The next test has as its system ΔtolC. As to the kind of experiment: Minimum inhibitory concentration assay. The test is classed as cell-based, E. coli. The procedure: (§5) We wondered whether it would be possible to separate novobiocin's ability to suppress the IptFG(ch) defects in vivo from its activity against DNA gyrase, its presumed primary target. […] Minimum inhibitory concentrations were measured after a 15-hr incubation period at 37° C.
(§6) Overnight cultures were prepared by transferring 5 mL of sterile LB Miller media to culture tubes and inoculating with the corresponding organism. The tubes were allowed to shake at 220 rpm, 37° C. overnight. 15 μL of overnight culture was diluted in 15 mL of LB Miller in a Falcon tube and was vortexed to mix. In a 96-well plate, 100 μL of diluted culture was added to each well. To column #1, an additional 100 μL of diluted culture and test compound was added (93.7 μL culture+6.35 μL 10 mg/mL novobiocin) or (94.2 μL culture+5.87 μL 10 mg/mL 1-adamantyl-novobiocin) such that the highest concentration tested was 500 μM. Transferred 100 μL from column #1 into column #2, etc, and mixed each time thoroughly. Repeated serial dilution until column #11. Incubated the plate at 37° C. overnight (˜16 h) and read the turbidity (OD600) using a Spectramax 384 plus plate reader (Molecular Devices).

In the next test the test system is wild type. As to the kind of experiment: Minimum inhibitory concentration assay. The following applies: Escherichia coli, 15 h, read-out: Minimum inhibitory concentration. The test is classed as cell-based, E. coli. On the procedure: as §5, §6
The subject of the next test is lptB1. As to the kind of experiment: Minimum inhibitory concentration assay. The test is classed as cell-based, E. coli. On the procedure: as §5, §6
The subject of test [3] is Acinetobacter baumannii Novo^R. As to the kind of experiment: Minimal inhibitory concentrations, checkerboard microdilution. The test is classed as cell-based. To be noted: grown at 37° C. for 24 h. On the procedure: (§7) Checkerboard microdilution assays between polymyxin B and novobiocin were performed in wild-type strains (unless otherwise noted) grown at 37° C. for 24 h. Checkerboard data (FIG. 1A-1F) are representative of at least three biological replicates. The following strains were tested: A) Wild-type Escherichia coli, ATCC 25922; B) Wild-type Enterobacter cloacae; ATCC 13047) Wild-type Klebsiella pneumoniae, ATCC 700721; D) Wild-type Pseudomonas aeruginosa, ATCC 15692 (PAO1); E) Wild-type Acinetobacter baumannii, ATCC 19606; F) novobiocin-resistant Acinetobacter baumannii, ATCC 19606 gyrB(R150C).

In a further test the test system is Klebsiella pneumoniae. Described as above. The test is classed as cell-based. The following applies: grown at 37° C. for 24 h. On the procedure: as §7
The subject of a further test is Escherichia coli. The test is described as above. The test is classed as cell-based. The following applies: grown at 37° C. for 24 h. On the procedure: as §7
The subject of the next test is Pseudomonas aeruginosa. Described as above. The test is classed as cell-based. The following applies: grown at 37° C. for 24 h. The procedure: as §7
For test [4], the system named is E. coli strain ATCC 25922. As to the kind of experiment: Neutropenic mouse thigh infection efficacy. The test is classed as in vivo. To be noted: for Average log10 CFU/g of thigh: neutropenic CD-1 mice, 26 hours post infection. On the procedure: Female CD-1 mice from Charles River Laboratories were allowed to acclimate for 5 days prior to start of study. Animals were housed four per cage with free access to food and water. Mice received two doses of cyclophosphamide on days −4 and −1 with 150 mg/kg and 100 mg/kg delivered IP, respectively. All procedures were performed to NeoSome IACUC policies and guidelines as well as OLAW standards.
E. coli strain ATCC 25922 was prepared for infection from an overnight plate culture. A portion of the plate was resuspended in sterile saline and adjusted to an OD of 0.15 at 625 nm. The adjusted bacterial suspension was further diluted to target an infecting inoculum of 1.5×10^5 CFU/mouse, the actual inoculum size for E. coli was 1.45×10^5 CFU/mouse. Plate counts of the inoculum was performed to confirm inoculum concentration.
Mice were inoculated with 100 μL of the prepared bacterial suspension via intramuscular injection into the right rear thigh.
Beginning at two hours post infection, mice were dosed with test agents subcutaneously at 10 mL/kg. A second dose of test agents was delivered at 6 hours post infection. For co-administered therapy, test agents were delivered separately at two different injection sites. Four animals were dosed per group. One group of four mice were euthanized at initiation of therapy (T=2 h) and CFUs determined. All remaining mice were euthanized at 26 hours post infection. At termination, thighs were aseptically excised, weighed, and homogenized to a uniform consistency in 2 mL of sterile saline. The homogenate was serially diluted and plated on bacterial growth media. The CFUs were enumerated after overnight incubation. The average and standard deviations for each group were determined.
Neutropenic mice infected with E. coli were treated with novobiocin, polymyxin B, or a combination of the two for the evaluation of efficacy is a thigh infection model.

Where [5] appears, read: Escherichia coli, 15 h, read-out: Minimum inhibitory concentration.
The mark [6] stands for this setting: PMB 0.03 mg/kg (total 0.06) BID/SC.
The mark [7] stands for this setting: PMB 0.1 mg/kg (total 0.2) BID/SC.
[8] abbreviates: PMB 0.3 mg/kg (total 0.6) BID/SC.

We go through three compounds from patent publication US11191773B2, “Methods of treatment for bacterial infections” (President and Fellows of Harvard College, priority 2017, dated 2021).

≈ marks a conversion by molar mass, not a printed value.

T1 sequence (P0AF98 whole entry): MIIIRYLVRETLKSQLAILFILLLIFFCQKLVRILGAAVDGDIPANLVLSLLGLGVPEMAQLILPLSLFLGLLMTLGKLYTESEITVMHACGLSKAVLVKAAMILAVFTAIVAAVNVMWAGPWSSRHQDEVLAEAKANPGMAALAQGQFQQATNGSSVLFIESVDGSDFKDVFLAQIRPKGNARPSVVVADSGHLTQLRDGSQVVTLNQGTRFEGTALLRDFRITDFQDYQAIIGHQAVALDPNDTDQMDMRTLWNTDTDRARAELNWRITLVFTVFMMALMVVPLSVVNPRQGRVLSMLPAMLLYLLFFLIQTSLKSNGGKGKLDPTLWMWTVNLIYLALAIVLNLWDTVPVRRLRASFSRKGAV
T1 sequence (P0ADV9 whole entry, further chain): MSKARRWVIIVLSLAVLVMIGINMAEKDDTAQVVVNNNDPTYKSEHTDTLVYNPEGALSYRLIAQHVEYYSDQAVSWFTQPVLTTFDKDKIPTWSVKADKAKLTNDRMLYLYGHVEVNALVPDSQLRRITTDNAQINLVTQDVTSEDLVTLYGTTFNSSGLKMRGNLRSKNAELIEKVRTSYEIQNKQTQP
T1 sequence (P0ADC6 whole entry, further chain): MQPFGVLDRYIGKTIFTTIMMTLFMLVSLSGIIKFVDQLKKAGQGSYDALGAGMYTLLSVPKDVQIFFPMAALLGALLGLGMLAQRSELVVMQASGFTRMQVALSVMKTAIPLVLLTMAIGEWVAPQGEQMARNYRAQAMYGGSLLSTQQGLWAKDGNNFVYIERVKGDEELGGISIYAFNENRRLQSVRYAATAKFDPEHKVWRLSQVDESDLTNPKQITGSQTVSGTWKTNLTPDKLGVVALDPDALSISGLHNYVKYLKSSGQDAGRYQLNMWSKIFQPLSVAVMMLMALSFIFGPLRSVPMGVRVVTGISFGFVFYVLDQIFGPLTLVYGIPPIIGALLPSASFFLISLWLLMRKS
T1 sequence (P0A9V1 2-241): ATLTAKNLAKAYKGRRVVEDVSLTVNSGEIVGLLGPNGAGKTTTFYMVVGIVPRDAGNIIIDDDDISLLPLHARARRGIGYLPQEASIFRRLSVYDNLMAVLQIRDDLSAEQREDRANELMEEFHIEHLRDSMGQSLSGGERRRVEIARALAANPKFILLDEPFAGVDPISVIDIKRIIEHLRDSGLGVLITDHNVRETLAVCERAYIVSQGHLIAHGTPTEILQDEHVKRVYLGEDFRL
T2 sequence (P0AF98 whole entry E84A): as the sequence (P0AF98 whole entry) above, with E84A counted along it
T2 sequence (P0ADC6 whole entry E88A, further chain): as the sequence (P0ADC6 whole entry, further chain) above, with E88A counted along it
T2 sequence (P0A9V1 2-241): as the sequence (P0A9V1 2-241) above
T2 sequence (P0ADV9 whole entry, further chain): as the sequence (P0ADV9 whole entry, further chain) above

Take `CO[C@@H]1[C@@H](OC(=O)c2ccc(C)[nH]2)[C@@H](O)[C@H](Oc2ccc3c(O)c(NC(=O)c4ccc(O)c(CC=C(C)C)c4)c(=O)oc3c2Cl)OC1(C)C` [clorobiocin]: in test [1], the “LPS transport in vitro” value is recorded as “highly stimulates LPS transport in vitro”. Also, the “synergy with PMB” value in the test with wild-type E. coli is on record as “more potent synergy with PMB than novobiocin”.

For the compound `COC1C(OC(N)=O)C(O)[C@H](Oc2ccc3c(O)c(NC(=O)C45CC6CC(CC(C6)C4)C5)c(=O)oc3c2C)OC1(C)C` (stereo partly drawn) [Novobiocin-adamantyl, (3R,4S,5R,6R)-6-((3-((3R,5S)-adamantane-1-carboxamido)-4-hydroxy-8-methyl-2-oxo-2H-chromen-7-yl)oxy)-5-hydroxy-3-methoxy-2,2-dimethyltetrahydro-2H-pyran-4-yl carbamate], the “potency compared to novobiocin” value in the test on wild type and IptB1 is “less potent than novobiocin”. In test [2], the “LPS release from vesicles to LptA*” value is reported as “stimulate LPS release from the LptB2LptFG(ch)C vesicles in a concentration dependent manner”. Further, in the test with IptFG(ch) mutant (disks on LB plates, each disk 5 μg compound (FIG. 15)), the “suppression of lethality of IptFG(ch)” value is “suppressed the lethality of IptFG(ch)”. The “rescue of growth of IptFG(ch)” value in the test on IptFG(ch) mutant (serial dilutions spotted onto LB agar plates with compound (FIG. 8B)) is on record as “completely suppressed the lethality of IptFG(ch)”. Also, the MIC with ΔtolC (setting [5]) was 125 to 250 µM (≈ 73.3 to 147 µg/mL); in the test with wild type, above 500 µM; in the test on lptB1 (setting [5]) it was 125 µM (≈ 73.3 µg/mL). The “less potent in vivo compared to novobiocin” value in the test with ΔtolC (efflux pump-deficient ΔtoIC strain) and with lptB1 (leaky IptB1 strain) was around 100 × each time.

For polymyxin B, the MIC in test [3] was 0.28 µg/mL; in the test with Klebsiella pneumoniae, 1 µg/mL; in the test on Escherichia coli, 0.11 µg/mL; with Pseudomonas aeruginosa, above 1 µg/mL. Further, the “change in log10 CFU/g of thigh from 2 hour control” value in test [4] (setting [6]) is 3.91 log10 CFU/g of thigh; in test [4] (setting [7]), 3.95 log10 CFU/g of thigh; in [4] (setting [8]), 3.38 log10 CFU/g of thigh; in test [4] (PMB 1 mg/kg (total 2) BID/SC), 0.49 log10 CFU/g of thigh. Further, the “change in log10 CFU/g of thigh from 26 hour controls” value in [4] (setting [6]) is −0.18 log10 CFU/g of thigh; in test [4] (setting [7]), −0.13 log10 CFU/g of thigh; in test [4] (setting [8]), −0.70 log10 CFU/g of thigh; in [4] (PMB 1 mg/kg (total 2) BID/SC), −3.60 log10 CFU/g of thigh. The “reductions in CFUs from the 26 hour infection controls” value in test [4] (Polymyxin B as a single agent at 0.2 mg/kg) is 0.70 log10 CFU/gram of thigh; in test [4] (Polymyxin B as a single agent at 1 mg/kg), 3.60 log10 CFU/gram of thigh. The “Average log10 CFU/g of thigh” value in [4] (setting [6]) is given as 9.44 log10 CFU/g of thigh; in [4] (setting [7]), 9.49 log10 CFU/g of thigh; in [4] (setting [8]) it was 8.92 log10 CFU/g of thigh; in test [4] (PMB 1 mg/kg (total 2) BID/SC), 6.02 log10 CFU/g of thigh.
